From US9050268B2, “Functional amphipilic molecule or macromolecule formulations with multiple compartments” (UNIVERSITE d'AIX-MARSEILLE, priority 2009, dated 2015) come the findings set out here.

Experiment [1] concerns SKOV3 (cisplatin-resistant). Put plainly: Cytotoxic effects on tumor lines IGROV-1 and SKOV3 (MTS cell viability). It is filed as cell-based. The following applies: 24 hours treatment, MTS 48 hours after washing, read-out: concentration necessary to obtain 50% cell death (IC50). The protocol:
(§1) 2500 cells (IGROV1, SKOV3, ovarian adenocarcinoma lines) per well are incubated in 100 μL of the medium with serum in a 96-well plate. After 24 hours the medium is aspirated and the cells are treated with free cisplatin or cisplatin encapsulated in the nanoparticles of Example 10 in 100 μL of the medium without serum at different concentrations (500, 100, 10, 1, 0.1, 0.01, 0.001 μM). After treatment for 24 hours, the medium is removed and the cells are washed twice with 100 μL of PBS then incubated with 100 μL of the medium with serum.
(§2) The absorbance at 490 nm is measured after incubation for 2 to 4 hours at 37° C. The absorbance is proportional to the cell viability.

Experiment [2] deals with IGROV1 (cisplatin-sensitive). The description is as above. The class given is cell-based, human. Conditions: 24 hours treatment, MTS 48 hours after washing, read-out: concentration necessary to obtain 50% cell death (IC50). The protocol: as §1, §2
Experiment [3] deals with cisplatin-resistant A2780/CisPt (Human ovarian carcinoma epithelial tumor). Put plainly: Cytotoxic effects on tumor lines (MTS cell viability). The class given is cell-based. The following applies: cisplatin-resistant line A2780; 24 hours treatment, MTS 48 hours after washing; read-out: concentration necessary to obtain 50% cell death (IC50).
Source text: (§3) The study consists of determining the concentration inhibiting 50% of cell proliferation (IC50) on a panel of tumor lines, namely • cisplatin-sensitive A2780 (Human ovarian carcinoma epithelial tumor) and cisplatin-resistant A2780/CisPt (Human ovarian carcinoma epithelial tumor) • cisplatin-sensitive IGROV-1 (Human ovarian carcinoma) and cisplatin-resistant IGROV-1/CisPt (Human ovarian carcinoma) • cisplatin-sensitive L1210 (mouse lymphocytic leukemia) and cisplatin-resistant L1210/CisPt (mouse lymphocytic leukemia) […] • NIH: OVCAR3 (ovarian carcinoma), and • P388 (mouse lymphoma)
(§4) 2500 cells (ovarian adenocarcinoma lines, etc.) per well are incubated in 100 μL of the medium with serum in a 96-well plate. After 24 hours the medium is aspirated and the cells are treated with free cisplatin or cisplatin encapsulated in the nanoparticles of Example 10 in 100 μL of the medium without serum at different concentrations (500, 100, 10, 1, 0.1, 0.01, 0.001 μM). After treatment for 24 hours, the medium is removed and the cells are washed twice with 100 μL of PBS then incubated with 100 μL of the medium with serum.
as §2

Experiment [4] relates to cisplatin-sensitive A2780 (Human ovarian carcinoma epithelial tumor). The experiment is described as above. It is filed as cell-based. The following applies: 24 hours treatment, MTS 48 hours after washing, read-out: concentration necessary to obtain 50% cell death (IC50).
Source text: as §3, §4, §2

Experiment [5] deals with SKV03 cells (cisplatin-resistant ovarian adenocarcinoma line). The experiment can be described thus: Assay of intracellular cisplatin (ICP optical assay after cell lysis). It is filed as cell-based. Conditions: 10^6 cells SKOV3, 100 μM, 2 hours. The protocol:
(§5) IGROV1 cells (cisplatin-sensitive ovarian adenocarcinoma line) at 80% confluence (dish 10 cm in diameter) are treated with […] of free cisplatin or cisplatin encapsulated in the nanoparticles of Example 10 for 2, 4 or 6 hours. On completion of this treatment two washings with PBS are carried out. The cells are treated with trypsin and resuspended in PBS. Two washings of the cell suspensions with PBS are carried out (centrifugation 1000 rpm/1 min). The cells are suspended in 1 mL of PBS and counted.
The same procedure is followed with SKV03 cells (cisplatin-resistant ovarian adenocarcinoma line).
(§6) 10^6 cells are lysed with 500 μL of the cell lysis solution (lysis buffer from SIGMA). The volume is topped up to 5 mL with milli-Q water with 1% HNO3 acid.

Experiment [6] relates to IGROV1 cells (cisplatin-sensitive ovarian adenocarcinoma line). Described as above. The class given is cell-based, human. Conditions: 10^6 IGROV1 cells, 100 μM, 2 hours. The protocol: as §5, §6

With `N.N.[Cl][Pt][Cl]` [free cisplatin, cisplatin], the IC50 in experiment [1] is 4.3 µM; in experiment [2], 2.41 µM; in experiment [3], 29.2 µM; in experiment [4], 4.68 µM. Also, the cisplatin internalized in experiment [5] and in experiment [6] was 0.5 nmol each time.
